Data published in patent US20070049593A1 (priority 2004, published 2007).
Structures can show the parent of a compound that is named as a salt.

target: T1, HCV polymerase (Hepatitis C virus genotype 1b, UniProt P26663); assay: biochemical; set-up: species or system HCV BK strain
T1 construct: a region encoding NS5B (J Virol 1991 March, 65(3), 1105-13, 544 amino acids after deletion of 47 amino acids on the C-terminal); 6xHis (C); made in house; host or cells: Escherichia coli
Summary of the method: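 His-tagged NS5B (BK strain, 47-aa C-terminal deletion, E. coli-expressed) at 0.5 μg/ml copied 5 μg/ml run-off RNA bearing the HCV 3′ UTR with 2 μM UTP plus [3H]UTP, 50 μM ATP/GTP, in pH 7.5 Tris with 5 mM MgCl2, 25 °C, 90 min. TCA-precipitated RNA was counted and IC50 calculated.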

T1 sequence (P26663 2420-2963): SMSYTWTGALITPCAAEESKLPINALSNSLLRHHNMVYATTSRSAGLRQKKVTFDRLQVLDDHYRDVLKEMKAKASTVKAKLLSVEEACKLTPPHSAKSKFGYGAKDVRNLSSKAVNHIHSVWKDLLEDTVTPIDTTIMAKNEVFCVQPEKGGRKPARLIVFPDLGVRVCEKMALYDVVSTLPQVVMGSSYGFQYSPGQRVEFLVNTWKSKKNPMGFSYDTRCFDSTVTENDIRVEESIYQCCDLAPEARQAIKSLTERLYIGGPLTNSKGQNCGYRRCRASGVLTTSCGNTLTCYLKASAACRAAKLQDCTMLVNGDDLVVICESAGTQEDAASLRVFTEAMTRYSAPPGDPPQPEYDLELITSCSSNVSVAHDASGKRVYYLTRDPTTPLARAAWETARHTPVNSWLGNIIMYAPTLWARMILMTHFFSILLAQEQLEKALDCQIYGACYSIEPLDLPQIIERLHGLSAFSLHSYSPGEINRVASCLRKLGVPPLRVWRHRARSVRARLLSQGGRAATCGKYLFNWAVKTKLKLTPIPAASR

SMILES | IC50 [nM]
O=C(O)c1ccc2c(C3CCCCC3)c3n(c2c1)CCN(CC(=O)N1CCC(O)CC1)c1ccccc1-3 [Example 1-35, 13-cyclohexyl-5-[2-(4-hydroxypiperidin-1-yl)-2-oxoethyl]-6,7-dihydro-5H-benzo[5,6][1,4]diazepino[7,1-a]indole-10-carboxylic acid monohydrochloride] | < 100
O=C(O)c1ccc2c(C3CCCCC3)c3n(c2c1)CCN(CCCN1CCCC1)c1cc(Cl)ccc1-3 [Example 1-269, 3-chloro-13-cyclohexyl-5-[3-(pyrrolidin-1-yl)propyl]-6,7-dihydro-5H-benzo[5,6][1,4]diazepino[7,1-a]indole-10-carboxylic acid dihydrochloride] | < 100
COc1ccc2c(c1)OCCn1c-2c(C2CCCCC2)c2ccc(C(=O)NC(C)(C)c3nc4ccc(C(=O)O)cc4[nH]3)cc21 [Example 2-332, 2-{1-[(12-cyclohexyl-3-methoxy-6,7-dihydro-5-oxa-7a-azadibenzo[a,e]azulene-9-carbonyl)amino]-1-methylethyl}-3H-benzimidazole-5-carboxylic acid] | < 100
Cc1ccc2c(c1)N(CCN1CCCC(C(=O)N(C)C)C1)CCn1c-2c(C2CCCCC2)c2ccc(C(=O)O)cc21 (centres unmarked) [Example 1-545, 13-cyclohexyl-5-[2-(3-dimethylcarbamoylpiperidin-1-yl)ethyl]-3-methyl-6,7-dihydro-5H-benzo[5,6][1,4]diazepino[7,1-a]indole-10-carboxylic acid dihydrochloride] | < 100
CCN(CCN1CCC(OC)CC1)c1cccc2c1OCCn1c-2c(C2CCCCC2)c2ccc(C(=O)O)cc21 [Example 2-272, 12-cyclohexyl-4-{N-ethyl-N-[2-(4-methoxypiperidin-1-yl)ethyl]amino}-6,7-dihydro-5-oxa-7a-azadibenzo[a,e]azulene-9-carboxylic acid dihydrochloride] | < 100
O=C(O)c1ccc2c(C3CCCCC3)c3n(c2n1)CCN(CCN1CCCCC1)c1cc(Cl)ccc1-3 [Example 8-5, 3-chloro-12-cyclohexyl-5-(2-piperidin-1-ylethyl)-6,7-dihydro-5H-5,7a,8-triazadibenzo[a,e]azulene-9-carboxylic acid trihydrochloride] | < 100
CC[C@H]1CCCN(CCN2CCn3c(c(C4CCCCC4)c4ccc(C(=O)O)cc43)-c3ccc(Cl)cc32)C1 [Example 1-335, 3-chloro-13-cyclohexyl-5-[2-((S)-3-ethylpiperidin-1-yl)ethyl]-6,7-dihydro-5H-benzo[5,6][1,4]diazepino[7,1-a]indole-10-carboxylic acid dihydrochloride] | < 100
Cc1ccc2c(c1)N(CCN1CCC(=O)N(C)CC1)CCn1c-2c(C2CCCCC2)c2ccc(C(=O)O)cc21 [Example 1-526, 13-cyclohexyl-3-methyl-5-[2-(4-methyl-5-oxo-1,4-diazepan-1-yl)ethyl]-6,7-dihydro-5H-benzo[5,6][1,4]diazepino[7,1-a]indole-10-carboxylic acid dihydrochloride] | < 100
CN(C)CCN1CCn2c(c(C3CCCCC3)c3ccc(C(=O)O)cc32)-c2ccc(OCCOc3ccccc3)cc21 [Example 1-548, 13-cyclohexyl-5-(2-dimethylaminoethyl)-3-(2-phenoxyethoxy)-6,7-dihydro-5H-benzo[5,6][1,4]diazepino[7,1-a]indole-10-carboxylic acid dihydrochloride] | < 100
CN(C)CCN1CCn2c(c(C3CCCCC3)c3ccc(C(=O)O)cc32)-c2ccc(OCCNCCO)cc21 [Example 1-576, 13-cyclohexyl-5-(2-dimethylaminoethyl)-3-[2-(2-hydroxyethylamino)ethoxy]-6,7-dihydro-5H-benzo[5,6][1,4]diazepino[7,1-a]indole-10-carboxylic acid trihydrochloride] | < 100
CCOc1ccc2c(c1)OCCn1c-2c(C2CCCCC2)c2ccc(C(=O)NC3(C(=O)Nc4cccc(/C=C/C(=O)O)c4)CCC3)cc21 [Example 2-551, (E)-3-[3-({1-[(12-cyclohexyl-3-ethoxy-6,7-dihydro-5-oxa-7a-azadibenzo[a,e]azulene-9-carbonyl)amino]cyclobutanecarbonyl}amino)phenyl]acrylic acid] | < 100
NC(=O)[C@H](Cc1ccc(O)cc1)NC(=O)c1ccc2c(C3CCCCC3)c3n(c2c1)CCOc1ccccc1-3 [Example 2-207, N—[(S)-1-carbamoyl-2-(4-hydroxyphenyl)ethyl]-12-cyclohexyl-6,7-dihydro-5-oxa-7a-azadibenzo[a,e]azulene-9-carboxamide] | < 100
O=C(CN1CCCCC1)Nc1ccccc1-c1cccc2c1OCCn1c-2c(C2CCCCC2)c2ccc(C(=O)O)cc21 [Example 2-549, 12-cyclohexyl-4-{2-[2-(piperidin-1-yl)acetylamino]phenyl}-6,7-dihydro-5-oxa-7a-azadibenzo[a,e]azulene-9-carboxylic acid] | < 100
CC(C)OCC1CCCN(CCN2CCn3c(c(C4CCCCC4)c4ccc(C(=O)O)cc43)-c3ccc(Cl)cc32)C1 (centres unmarked) [Example 1-406, 3-chloro-13-cyclohexyl-5-[2-(3-isopropoxymethylpiperidin-1-yl)ethyl]-6,7-dihydro-5H-benzo[5,6][1,4]diazepino[7,1-a]indole-10-carboxylic acid dihydrochloride] | < 100
CCOCC[C@@H]1CCCN(CCN2CCn3c(c(C4CCCCC4)c4ccc(C(=O)O)cc43)-c3ccc(C)cc32)C1 [Example 1-514, 13-cyclohexyl-5-{2-[(S)-3-(2-ethoxyethyl)piperidin-1-yl]ethyl}-3-methyl-6,7-dihydro-5H-benzo[5,6][1,4]diazepino[7,1-a]indole-10-carboxylic acid dihydrochloride] | < 100
O=C(O)c1ccc2c(C3CCCCC3)c3n(c2c1)CCOc1c(-c2ccccc2/C=C/C(=O)N2CCCCC2)cccc1-3 [Example 2-534, 12-cyclohexyl-4-{2-[(E)-3-oxo-3-(piperidin-1-yl)propenyl]phenyl}-6,7-dihydro-5-oxa-7a-azadibenzo[a,e]azulene-9-carboxylic acid] | < 100
O=C(O)c1ccc2c(C3CCCCC3)c3n(c2c1)CCOc1c(OCCCN2CCCCC2)cccc1-3 [Example 2-460, 12-cyclohexyl-4-[3-(piperidin-1-yl)propoxy]-6,7-dihydro-5-oxa-7a-azadibenzo[a,e]azulene-9-carboxylic acid monohydrochloride] | < 100
COc1ccc2c(c1)OCCn1c-2c(C2CCCCC2)c2ccc(C(=O)NC3(c4nc5ccc(C(=O)O)cc5[nH]4)CCN(C)CC3)cc21 [Example 2-449, 2-{4-[(12-cyclohexyl-3-methoxy-6,7-dihydro-5-oxa-7a-azadibenzo[a,e]azulene-9-carbonyl)amino]-1-methylpiperidin-4-yl}-3H-benzimidazole-5-carboxylic acid] | < 100
Cc1ccc2c(c1)N(CCN1CCC[C@@H](CC(=O)N(C)C)C1)CCn1c-2c(C2CCCCC2)c2ccc(C(=O)O)cc21 [Example 1-527, 13-cyclohexyl-5-{2-[(S)-3-(dimethylcarbamoylmethyl)piperidin-1-yl]ethyl}-3-methyl-6,7-dihydro-5H-benzo[5,6][1,4]diazepino[7,1-a]indole-10-carboxylic acid dihydrochloride] | < 100
CC(=O)Nc1cccc(COc2ccc3c(c2)N(CCN(C)C)CCn2c-3c(C3CCCCC3)c3ccc(C(=O)O)cc32)c1 [Example 1-582, 3-(3-acetylaminobenzyloxy)-13-cyclohexyl-5-(2-dimethylaminoethyl)-6,7-dihydro-5H-benzo[5,6][1,4]diazepino[7,1-a]indole-10-carboxylic acid dihydrochloride] | < 100
COC(=O)c1ccc2nc(C3(NC(=O)c4ccc5c(C6CCCCC6)c6n(c5c4)CCOc4ccccc4-6)CCC3)[nH]c2c1 [Example 2-152, methyl 2-{1-[(12-cyclohexyl-6,7-dihydro-5-oxa-7a-azadibenzo[a,e]azulene-9-carbonyl)amino]cyclobutyl}-3H-benzimidazole-5-carboxylate] | < 100
O=C(O)c1ccc2c(C3CCCCC3)c3n(c2c1)CCN(CCN1CCc2ccccc2C1)c1ccccc1-3 [Example 1-142, 13-cyclohexyl-5-[2-(3,4-dihydro-1H-isoquinolin-2-yl)ethyl]-6,7-dihydro-5H-benzo[5,6][1,4]diazepino[7,1-a]indole-10-carboxylic acid dihydrochloride] | < 100
COc1ccc2c(c1)OCCn1c-2c(C2CCCCC2)c2ccc(C(=O)NC(C)(C)c3ccc(CC(N)C(=O)O)cc3)cc21 (centres unmarked) [Example 2-444, 2-amino-3-(4-{1-[(12-cyclohexyl-3-methoxy-6,7-dihydro-5-oxa-7a-azadibenzo[a,e]azulene-9-carbonyl)amino]-1-methylethyl}phenyl)propionic acid] | < 100
CS(=O)(=O)N1CCN(CCN2CCn3c(c(C4CCCCC4)c4ccc(C(=O)O)cc43)-c3ccccc32)CC1 [Example 1-91, 13-cyclohexyl-5-[2-(4-methanesulfonylpiperazin-1-yl)ethyl]-6,7-dihydro-5H-benzo[5,6][1,4]diazepino[7,1-a]indole-10-carboxylic acid dihydrochloride] | < 100
COC(=O)[C@@H]1Cc2ccc(O)cc2CN1C(=O)c1ccc2c(C3CCCCC3)c3n(c2c1)CCOc1cc(OC)ccc1-3 [Example 2-281, methyl (S)-2-(12-cyclohexyl-3-methoxy-6,7-dihydro-5-oxa-7a-azadibenzo[a,e]azulene-9-carbonyl)-7-hydroxy-1,2,3,4-tetrahydroisoquinoline-3-carboxylate] | 100 to 1000
CN1CCn2c(c(C3CCCCC3)c3ccc(C(=O)O)cc32)-c2ccc(OCc3cc(S(C)(=O)=O)ccc3N3CCOCC3)cc21 [Example 1-103, 13-cyclohexyl-3-[5-methanesulfonyl-2-(morpholin-4-yl)benzyloxy]-5-methyl-6,7-dihydro-5H-benzo[5,6][1,4]diazepino[7,1-a]indole-10-carboxylic acid dihydrochloride] | < 100
